Data reported in patent US4596873A, “1,4,5,6,7,8-Hexahydro-2-alkyl-4-aryl-5-oxo-1,7-naphthyridine-3-carboxyl ic acid aromatic esters and pharmaceutically acceptable acid addition salts thereof useful as antihypertensive agents” (American Home Products Corporation, priority 1985, dated 1986).

Experiments:
[1] = test system: Ca^+2 -calmodulin dependent myosin light chain phosphorylation; experiment: inhibition of Ca^+2-calmodulin dependent myosin light chain phosphorylation (MLCP); type: biochemical
Experimental: (§1) The data reported herein was obtained at a six minute time-point rather than the 1.5, 5 and 12 minute time points indicated in the superprecipitation assay of the Silver et al. paper.
(§2) The following examples illustrate the preparation of a representative number of compounds of this invention. After each example, and Ca^+2 antagonist activity of the compound is presented in terms of percent relaxation of aortic tissue (P.R.) at 10^-5 M concentration. […] Inhibition of superprecipitation (Antag. of Actin-Myosin interaction) is expressed as percent inhibition (mean±standard error of the mean for at least 3 separate experiments) at a compound concentration. In the same manner, inhibition of myosin light chain phosphorylation (Antag. of MLCP) is expressed as a percent inhibition at a compound concentration. Similarly, the antihypertensive activity is reported in terms of millimeters mercury (mmHg) systolic blood pressure (B.P.) reduction at the stated time post 50 mg/kg oral dosing or other dosing as indicated.

[2] = test system: arterial actin-myosin interactions; experiment: inhibition of superprecipitation (antagonism of arterial actin-myosin interaction); type: biochemical; conditions: six minute time-point, mean±SEM
Experimental: as §1, §2

[3] = test system: spontaneously hypertensive rats; experiment: decrease in systolic blood pressure of spontaneously hypertensive rats; type: in vivo, rat

Row | Compound | inhibition of myosin light chain phosphorylation (Antag. of MLCP) ([1]; 50 μM) [%] | inhibition of myosin light chain phosphorylation (Antag. of MLCP) ([1]; 100 μM) [%] | inhibition of superprecipitation (Antag. of Actin-Myosin) ([2]; 50 μM) [%] | inhibition of superprecipitation (Antag. of Actin-Myosin) ([2]; 100 μM) [%] | systolic blood pressure (B.P.) reduction ([3]; 50 mg/kg oral, 1.5 hours) [mmHg] | systolic blood pressure (B.P.) reduction ([3]; 50 mg/kg oral, 4 hours) [mmHg] | systolic blood pressure (B.P.) reduction ([3]; 25 mg/kg, 1.5 hours) [mmHg] | systolic blood pressure (B.P.) reduction ([3]; 25 mg/kg, 4 hours) [mmHg] | inhibition of myosin light chain phosphorylation (Antag. of MLCP) ([1]; 25 μM) [%] | inhibition of superprecipitation (Antag. of Actin-Myosin) ([2]; 25 μM) [%] | systolic blood pressure (B.P.) reduction ([3]; 10 mg/kg, 4 hours) [mmHg] | systolic blood pressure (B.P.) reduction ([3]; 10 mg/kg, 1.5 hours) [mmHg]
1 | CO[C@H](COC(=O)C1=C(C)NC2=C(C(=O)CNC2)C1c1c(F)c(F)c(F)c(F)c1F)c1ccccc1 (single isomer, unassigned) [Example 8 Diastereomer B, 1,4,5,6,7,8-Hexahydro-2-methyl-5-oxo-4(R or S-pentafluorophenyl)-1,7-naphthyridine-3-carboxylic acid (S)-2-methoxy-2-phenylethyl esters] | 34 | 62 | 30 | 64 |  |  |  |  |  |  |  | 
2 | CO[C@H](COC(=O)C1=C(C)NC2=C(C(=O)CNC2)C1c1c(F)c(F)c(F)c(F)c1F)c1ccccc1 (single isomer, unassigned) [Example 8 Diastereomer A, 1,4,5,6,7,8-Hexahydro-2-methyl-5-oxo-4(R or S-pentafluorophenyl)-1,7-naphthyridine-3-carboxylic acid (S)-2-methoxy-2-phenylethyl esters] | 28 | 63 | 28 | 69 |  |  |  |  |  |  |  | 
3 | CC1=C(C(=O)OCCOc2ccccc2)C(c2cccc(Cl)c2Cl)C2=C(CNCC2=O)N1.Cl (stereo not drawn) [Example 19, 4-(2,3-Dichlorophenyl)-1,4,5,6,7,8-hexahydro-2-methyl-5-oxo-1,7-naphthyridine-3-carboxylic acid 2-phenoxyethyl ester, hydrochloride] |  | 69 |  | 71 | -50 | -73 |  |  |  |  |  | 
4 | COC(COC(=O)C1=C(C)NC2=C(C(=O)CNC2)C1c1ccccc1C(F)(F)F)c1ccccc1 (stereo not drawn) [Example 12, 1,4,5,6,7,8-Hexahydro-2-methyl-5-oxo-4-[2-(trifluoromethyl)phenyl]-1,7-naphthyridine-3-carboxylic acid 2-methoxy-2-phenylethyl ester] |  | 24 |  | 30 |  |  | -56 | -56 |  |  |  | 
5 | CC1=C(C(=O)OCC2COc3ccccc3O2)C(c2c(F)c(F)c(F)c(F)c2F)C2=C(CNCC2=O)N1 (stereo not drawn) [Example 14, 1,4,5,6,7,8-Hexahydro-2-methyl-5-oxo-4-(pentafluorophenyl)-1,7-naphthyridine-3-carboxylic acid 2,3-dihydro-1,4-benzodioxin-2-ylmethyl ester] |  | 76 |  | 80 | -46 | -42 |  |  | 59 | 65 |  | 
6 | COC(COC(=O)C1=C(C)NC2=C(C(=O)CNC2)C1c1cccc(Cl)c1)c1ccccc1 (stereo not drawn) [Example 11, 4-(3-Chlorophenyl)-1,4,5,6,7,8-hexahydro-2-methyl-5-oxo-1,7 naphthyridine-3-carboxylic acid 2-methoxy-2-phenylethyl ester] |  | 48 |  | 53 | -29 | -38 |  |  |  |  |  | 
7 | CC1=C(C(=O)OCCOc2ccccc2)C(c2c(F)ccc(C)c2Cl)C2=C(CNCC2=O)N1 (stereo not drawn) [Example 23, 4-(2-chloro-6-fluoro-3-methylphenyl)-1,4,5,6,7,8-hexahydro-2-methyl-5-oxo-1,7-naphthyridine-3-carboxylic acid 2-phenoxyethyl ester] | 18 | 56 | 23 | 62 |  |  | -22 | -31 |  |  |  | 
8 | CC1=C(C(=O)OCCOc2ccccc2)C(c2c(F)c(F)c(F)c(F)c2F)C2=C(CNCC2=O)N1 (racemic) [Example 2, 1,4,5,6,7,8-Hexahydro-2-methyl-5-oxo-4-(pentafluorophenyl)-1,7-naphthyridine-3-carboxylic acid 2-phenoxyethyl ester] | 54±4 | 69±3 | 58±4 | 72±2 |  |  |  |  | 24±3 | 28±2 | -51 | 
9 | COC(COC(=O)C1=C(C)NC2=C(C(=O)CNC2)C1c1c(F)cccc1Cl)c1ccccc1 (stereo not drawn) [Example 9, 4-(2-Chloro-6-fluorophenyl)-1,4,5,6,7,8-hexahydro-2-methyl-5-oxo-1,7-naphthyridine-3-carboxylic acid 2-methoxy-2-phenylethyl ester] |  | 44 |  | 40 | -37 | -14 |  |  |  |  |  | 
10 | CC1=C(C(=O)OCCc2ccccc2)C(c2c(F)c(F)c(F)c(F)c2F)C2=C(CNCC2=O)N1 (stereo not drawn) [Example 18, 1,4,5,6,7,8-Hexahydro-2-methyl-5-oxo-4-(pentafluorophenyl)-1,7-naphthyridine-3-carboxylic acid 2-phenylethyl ester] | 64 | 77±3 | 65 | 78±2 |  |  |  |  | 35 | 42 | -24 | -27
11 | CC1=C(C(=O)OCCOc2ccccc2)C(c2c(F)ccc(F)c2F)C2=C(CNCC2=O)N1 (stereo not drawn) [Example 16, 1,4,5,6,7,8-Hexahydro-2-methyl-5-oxo-4-(2,3,6-trifluorophenyl)-1,7-naphthyrdine-3-carboxylic acid 2-phenoxyethyl ester] |  | 28 |  | 34 |  |  |  | -18 |  |  |  | 
12 | CO[C@@H](COC(=O)C1=C(C)NC2=C(C(=O)CNC2)C1c1c(F)c(F)c(F)c(F)c1F)c1ccccc1 (stereo partly drawn) [Example 6, 1,4,5,6,7,8-Hexahydro-2-methyl-5-oxo-4-(pentafluorophenyl)-1,7-naphthyridine-3-carboxylic acid (R)-2-methoxy-2-phenylethyl ester] | 56 | 70 | 64 | 74 |  |  |  |  |  |  | -49 | -56
13 | CC1=C(C(=O)OCCCCOc2ccccc2)C(c2c(F)c(F)c(F)c(F)c2F)C2=C(CNCC2=O)N1 (stereo not drawn) [Example 21, 1,4,5,6,7,8-Hexahydro-2-methyl-5-oxo-4-(pentafluorophenyl)-1,7-naphthyridine-3-carboxylic acid 4-phenoxybutyl ester] |  | 77 |  | 80 |  |  | 0 | -49 |  |  |  | 
14 | CC1=C(C(=O)OCC(C)(C)Oc2ccccc2)C(c2c(F)c(F)c(F)c(F)c2F)C2=C(CNCC2=O)N1.Cl (stereo not drawn) [Example 20, 1,4,5,6,7,8-Hexahydro-2-methyl-5-oxo-4-(pentafluorophenyl)-1,7-naphthyridine-3-carboxylic acid 2-methyl-2-phenoxypropyl ester, hydrochloride] |  | 62 |  | 67 |  |  | -64 | -41 |  |  |  | 
15 | CC1=C(C(=O)OCCOc2ccccc2)C(c2c(F)c(F)c(F)c(F)c2F)C2=C(CNCC2=O)N1 (single isomer, unassigned; (-)) [Example 3, (-)-1,4,5,6,7,8-Hexahydro-2-methyl-5-oxo-4-(pentafluorophenyl)-1,7-naphthyridine-3-carboxylic acid 2-phenoxyethyl ester] | 57 | 70 | 65 | 76 |  |  |  |  |  |  |  | 
